Reference: patent EP0908457B1, “3-(1,2-benzisothiazol- and isoxazol-5-Y1)-2,4(1H,3H)-pyrimidinedione or thione and 3-(1,2-benzisothiazol- and isoxazol-5-y1)-4(3H)-pyrimidinone or thione herbicidal agents” (BASF AKTIENGESELLSCHAFT, priority 1997, dated 1999)

Columns and labels:
[1] = tested on: Echinochloa oryzoides (Ard.) Fritsch.; assay: Preemergence weed control under flooded paddy conditions, ECHORC (Watergrass (Calif.)); assay type: in vivo; settings: preemergence, flooded paddy, rated three to four weeks after treatment; further: meaning of each grade not given here
Cyperus iria = assay: Preemergence weed control under flooded paddy conditions, CYPIR (Rice Flatsedge); assay type: in vivo; settings: preemergence, flooded paddy, rated three to four weeks after treatment; further: meaning of each grade not given here
[2] = tested on: Cyperus serotinus, Rottb.; assay: Preemergence weed control under flooded paddy conditions, CYPSE (Flatsedge); assay type: in vivo; settings: preemergence, rated three to four weeks after treatment; further: meaning of each grade not given here
[3] = tested on: Monochoria vaginalis, Presl.; assay: Preemergence weed control under flooded paddy conditions, MOOVA (Monochoria); assay type: in vivo; settings: preemergence, flooded paddy, rated three to four weeks after treatment; further: meaning of each grade not given here
Sagittaria pygmaea, L. = assay: Preemergence weed control under flooded paddy conditions, SAGPY (Arrowhead (Pygmaea)); assay type: in vivo; settings: preemergence, flooded paddy, rated three to four weeks after treatment; further: meaning of each grade not given here
[4] = tested on: Oryza sativa, (L.) Tebonnet; assay: Rice tolerance to post-transplant applications under flooded paddy conditions (Example 187), ORYSAT (Rice, Tebonnet); settings: rated three to four weeks after treatment

SMILES	herbicidal effect rating, ECHORC ([1]; 0.0313 kg/ha)	herbicidal effect rating, ECHORC ([1]; 0.0625 kg/ha)	herbicidal effect rating, ECHORC ([1]; 0.1250 kg/ha)	herbicidal effect rating, ECHORC ([1]; 0.2500 kg/ha)	herbicidal effect rating, CYPIR (Cyperus iria; 0.0313 kg/ha)	herbicidal effect rating, CYPIR (Cyperus iria; 0.0625 kg/ha)	herbicidal effect rating, CYPIR (Cyperus iria; 0.1250 kg/ha)	herbicidal effect rating, CYPIR (Cyperus iria; 0.2500 kg/ha)	herbicidal effect rating, CYPSE ([2]; 0.0313 kg/ha)	herbicidal effect rating, CYPSE ([2]; 0.0625 kg/ha)	herbicidal effect rating, CYPSE ([2]; 0.1250 kg/ha)	herbicidal effect rating, CYPSE ([2]; 0.2500 kg/ha)	herbicidal effect rating, MOOVA ([3]; 0.0313 kg/ha)	herbicidal effect rating, MOOVA ([3]; 0.0625 kg/ha)	herbicidal effect rating, MOOVA ([3]; 0.1250 kg/ha)	herbicidal effect rating, MOOVA ([3]; 0.2500 kg/ha)	herbicidal effect rating, SAGPY (Sagittaria pygmaea, L.; 0.0313 kg/ha)	herbicidal effect rating, SAGPY (Sagittaria pygmaea, L.; 0.0625 kg/ha)	herbicidal effect rating, SAGPY (Sagittaria pygmaea, L.; 0.1250 kg/ha)	herbicidal effect rating, SAGPY (Sagittaria pygmaea, L.; 0.2500 kg/ha)	other results
COC(=O)C(C)Oc1ccc(C(C)C)cc1-c1nsc2ccc(-n3c(=O)cc(C(F)(F)F)n(C)c3=O)cc12 (stereo not drawn) [Example 30, Methyl 2-{2-{5-[3,6-dihydro-3-methyl-4-(trifluoromethyl)-2,6-dioxo-1(2H)-pyrimidinyl]-1,2-benzisothiazol-3-yl}-4-isopropylphenoxy}propionate]	6.5	8.5	9.0	9.0	2.0	6.0	8.0	8.0	0.0	0.0	4.0	2.0	9.0	9.0	9.0	9.0	0.0	0.0	2.0	7.0	herbicidal effect rating, ORYSAT (rice tolerance) ([4]; 0.0313 kg/ha): 2.0; herbicidal effect rating, ORYSAT (rice tolerance) ([4]; 0.0625 kg/ha): 3.0; herbicidal effect rating, ORYSAT (rice tolerance) ([4]; 0.1250 kg/ha): 3.0; herbicidal effect rating, ORYSAT (rice tolerance) ([4]; 0.2500 kg/ha): 3.5
COCc1nsc2ccc(-n3c(=O)cc(C(F)(F)F)n(C)c3=O)cc12 [Example 31, 3-[3-(Methoxymethyl)-1,2-benzisothiazol-5-yl]-1-methyl-6-(trifluoromethyl)-2,4(1H,3H)-pyrimidinedione]	7.0	8.5	9.0	9.0	9.0	9.0	9.0	9.0	7.0	7.0	8.0	9.0	9.0	9.0	9.0	9.0	4.0	7.0	9.0	9.0	herbicidal effect rating, ORYSAT (rice tolerance) ([4]; 0.0313 kg/ha): 7.5; herbicidal effect rating, ORYSAT (rice tolerance) ([4]; 0.0625 kg/ha): 8.0; herbicidal effect rating, ORYSAT (rice tolerance) ([4]; 0.1250 kg/ha): 7.5; herbicidal effect rating, ORYSAT (rice tolerance) ([4]; 0.2500 kg/ha): 8.0
COC(=O)C(C)Oc1ccc(C)cc1-c1nsc2ccc(-n3c(=S)cc(C(F)(F)F)n(C)c3=O)cc12 (stereo not drawn) [Example 33, Methyl 2-{{2-{5-[3,6-dihydro-3-methyl-2-oxo-6-thioxo-4-(trifluoromethyl)-1(2H)-pyrimidinyl]-1,2-benzisothiazol-3-yl}-p-tolyl}oxy}propionate]	7.5	8.5	9.0	9.0	0.0	0.0	2.0	4.0	0.0	0.0	0.0	0.0	9.0	9.0	9.0	9.0	0.0	0.0	0.0	0.0	herbicidal effect rating, ORYSAT (rice tolerance) ([4]; 0.0313 kg/ha): 2.0; herbicidal effect rating, ORYSAT (rice tolerance) ([4]; 0.0625 kg/ha): 3.0; herbicidal effect rating, ORYSAT (rice tolerance) ([4]; 0.1250 kg/ha): 3.0; herbicidal effect rating, ORYSAT (rice tolerance) ([4]; 0.2500 kg/ha): 3.5
COc1cc(C)c(C)c(C)c1-c1nsc2ccc(-n3c(=O)cc(C(F)(F)F)n(C)c3=O)cc12 [Example 34, 3-[3-(6-Methoxy-2,3,4-trimethylphenyl)-1,2-benzisothiazol-5-yl]-1-methyl-6-(trifluoromethyl)-2,4(1H,3H)-pyrimidinedione]	2.0	2.5	3.5	4.5	0.0	0.0	0.0	0.0	0.0	0.0	0.0	0.0	0.0	0.0	0.0	0.0	0.0	0.0	0.0	0.0	herbicidal effect rating, ORYSAT (rice tolerance) ([4]; 0.0313 kg/ha): 0.0; herbicidal effect rating, ORYSAT (rice tolerance) ([4]; 0.0625 kg/ha): 0.0; herbicidal effect rating, ORYSAT (rice tolerance) ([4]; 0.1250 kg/ha): 0.0; herbicidal effect rating, ORYSAT (rice tolerance) ([4]; 0.2500 kg/ha): 0.0
